Patent US6777425B2, “Isoquinoline compounds having antiinfective activity” (Genesoft Pharmaceuticals, Inc., priority 2001, dated 2004)

Columns and labels:
B. cereus ATCC 11778 = experiment: NCCLS broth microdilution MIC, B. cereus; type: cell-based, Bacillus cereus; conditions: organism A = B. cereus ATCC 11778
Excerpt: (§1) Compounds according to this invention were screened for their in vitro activities against selected species of bacteria and fungi. […]

C. albicans ATCC 38247 = experiment: Antifungal MIC, C. albicans; type: cell-based, Candida albicans; conditions: organism B = C. albicans ATCC 38247
Excerpt: as §1

E. faecalis ATCC 29212 = experiment: NCCLS broth microdilution MIC, E. faecalis; type: cell-based; conditions: organism C = E. faecalis ATCC 29212
Excerpt: as §1

S. pneumoniae ATCC 49619 = experiment: NCCLS broth microdilution MIC, S. pneumoniae ATCC 49619; type: cell-based, Streptococcus pneumoniae; conditions: organism H = S. pneumoniae ATCC 49619
Excerpt: as §1

S. aureus ATCC 13709 = experiment: NCCLS broth microdilution MIC, S. aureus (MSSA); type: cell-based, Staphylococcus aureus; conditions: organism E = S. aureus ATCC 13709 (MSSA)
Excerpt: as §1

S. aureus ATCC 27660 = experiment: NCCLS broth microdilution MIC, S. aureus (MRSA); type: cell-based, Staphylococcus aureus; conditions: organism F = S. aureus ATCC 27660 (MRSA)
Excerpt: as §1

[1] = Staphylococcus aureus, read-out: Minimum Inhibitory Concentration (MIC)

Row | SMILES | Minimum Inhibitory Concentration (MIC) (B. cereus ATCC 11778) | Minimum Inhibitory Concentration (MIC) (C. albicans ATCC 38247) | Minimum Inhibitory Concentration (MIC) (E. faecalis ATCC 29212) | Minimum Inhibitory Concentration (MIC) (S. pneumoniae ATCC 49619) | Minimum Inhibitory Concentration (MIC) (S. aureus ATCC 13709) | Minimum Inhibitory Concentration (MIC) (S. aureus ATCC 27660) | MIC (B. cereus ATCC 11778; Bacillus cereus, ATCC11778, read-out: Minimum Inhibitory Concentration (MIC)) [µg/mL] | MIC (C. albicans ATCC 38247; Candida albicans, ATCC38247, read-out: Minimum Inhibitory Concentration (MIC)) [µg/mL] | MIC (E. faecalis ATCC 29212; Enterococcus faecalis, ATCC29212, read-out: Minimum Inhibitory Concentration (MIC)) [µg/mL] | MIC (S. aureus ATCC 13709; [1]) [µg/mL] | MIC (S. aureus ATCC 27660; [1]) [µg/mL] | MIC (S. pneumoniae ATCC 49619; Streptococcus pneumoniae, ATCC49619, read-out: Minimum Inhibitory Concentration (MIC)) [µg/mL]
1 | Cn1cc(NC(=O)c2cc(NC(=O)c3cc(NC(=O)c4nccc5ccccc45)cn3C)cn2C)cc1C(=O)NCCN1CCOCC1 [Ib-1] | +++ (+++ = MIC ≦ 4) | >32 µg/mL | +++ (+++ = MIC ≦ 4) | +++ (+++ = MIC ≦ 4) | – | – | – | – | – | – | – | –
2 | CCN(CC)CCNC(=O)c1cc(NC(=O)c2cc(NC(=O)c3cc(NC(=O)c4cc5ccccc5cn4)cn3C)cn2C)sn1 [Ib-53] | +++ (+++ = MIC ≦ 4) | >32 µg/mL | +++ (+++ = MIC ≦ 4) | +++ (+++ = MIC ≦ 4) | +++ (+++ = MIC ≦ 4) | +++ (+++ = MIC ≦ 4) | – | – | – | – | – | –
3 | Cn1cc(NC(=O)c2cc(NC(=O)c3cc(NC(=O)c4cc5ccccc5cn4)cn3C)cn2CCN2CCOCC2)cc1C(=O)NCCN1CCOCC1 [Ib-57] | +++ (+++ = MIC ≦ 4) | >32 µg/mL | +++ (+++ = MIC ≦ 4) | +++ (+++ = MIC ≦ 4) | +++ (+++ = MIC ≦ 4) | +++ (+++ = MIC ≦ 4) | – | – | – | – | – | –
4 | Cn1cc(NC(=O)c2cc3ccccc3cn2)cc1C(=O)Nc1cc(C(=O)Nc2cn(C)c(C(=O)NCCN3CCOCC3)n2)n(C)c1 [Ib-58] | >32 µg/mL | >32 µg/mL | +++ (+++ = MIC ≦ 4) | +++ (+++ = MIC ≦ 4) | ++ (++ = 4 < MIC < 12) | >32 µg/mL | – | – | – | – | – | –
5 | Cn1cc(NC(=O)c2cc(NC(=O)c3cc4ccccc4cn3)no2)cc1C(=O)OCCN1CCOCC1 [Ib-61] | >32 µg/mL | >32 µg/mL | +++ (+++ = MIC ≦ 4) | +++ (+++ = MIC ≦ 4) | + (+ = 12 ≦ MIC ≦ 32) | +++ (+++ = MIC ≦ 4) | – | – | – | – | – | –
6 | Cn1cc(NC(=O)c2cc(NC(=O)c3cc(NC(=O)c4cc5ccccc5cn4)c[nH]3)cn2C)cc1C(=O)NCCN1CCCCC1 [Ib-62] | +++ (+++ = MIC ≦ 4) | >32 µg/mL | +++ (+++ = MIC ≦ 4) | +++ (+++ = MIC ≦ 4) | ++ (++ = 4 < MIC < 12) | +++ (+++ = MIC ≦ 4) | – | – | – | – | – | –
7 | Cc1cc(NC(=O)c2cc(NC(=O)c3cc(NC(=O)c4cc5ccccc5cn4)cn3C)cn2CCN2CCOCC2)sn1 [Ib-63] | +++ (+++ = MIC ≦ 4) | >32 µg/mL | +++ (+++ = MIC ≦ 4) | +++ (+++ = MIC ≦ 4) | +++ (+++ = MIC ≦ 4) | +++ (+++ = MIC ≦ 4) | – | – | – | – | – | –
8 | Cc1cc(NC(=O)c2cc(NC(=O)c3cc(NC(=O)c4cc5ccccc5cn4)cn3C)cn2CCN2CCCC2)sn1 [Ib-65] | +++ (+++ = MIC ≦ 4) | >32 µg/mL | +++ (+++ = MIC ≦ 4) | +++ (+++ = MIC ≦ 4) | +++ (+++ = MIC ≦ 4) | +++ (+++ = MIC ≦ 4) | – | – | – | – | – | –
9 | Cn1cc(NC(=O)c2cc(NC(=O)c3cc(NC(=O)c4cc5ccccc5cn4)c[nH]3)cn2C)cc1C(=O)NCCc1ccccn1 [Ib-69] | +++ (+++ = MIC ≦ 4) | >32 µg/mL | +++ (+++ = MIC ≦ 4) | +++ (+++ = MIC ≦ 4) | +++ (+++ = MIC ≦ 4) | +++ (+++ = MIC ≦ 4) | – | – | – | – | – | –
10 | Cn1cc(NC(=O)c2cc(NC(=O)c3cc(NC(=O)c4cc5ccccc5cn4)c[nH]3)cn2C)cc1C(=O)NCCN1CCC(F)CC1 [Ib-71] | +++ (+++ = MIC ≦ 4) | >32 µg/mL | +++ (+++ = MIC ≦ 4) | +++ (+++ = MIC ≦ 4) | +++ (+++ = MIC ≦ 4) | +++ (+++ = MIC ≦ 4) | – | – | – | – | – | –
11 | COCn1cc(NC(=O)c2cc3ccccc3cn2)cc1C(=O)Nc1cc(C(=O)Nc2cc(C(=O)NCCN3CCOCC3)n(C)c2)n(C)c1 [Ib-72] | +++ (+++ = MIC ≦ 4) | >32 µg/mL | +++ (+++ = MIC ≦ 4) | +++ (+++ = MIC ≦ 4) | +++ (+++ = MIC ≦ 4) | +++ (+++ = MIC ≦ 4) | – | – | – | – | – | –
12 | CN(C)CCSCCn1cc(NC(=O)c2cc3ccccc3cn2)cc1C(=O)Nc1cc(C(=O)Nc2ccc3cnccc3c2)n(C)c1 [Ib-73] | +++ (+++ = MIC ≦ 4) | +++ (+++ = MIC ≦ 4) | +++ (+++ = MIC ≦ 4) | +++ (+++ = MIC ≦ 4) | +++ (+++ = MIC ≦ 4) | +++ (+++ = MIC ≦ 4) | – | – | – | – | – | –
13 | CC(=O)[O-].Cc1cc(NC(=O)c2cc(NC(=O)c3cc(NC(=O)c4cc5ccccc5cn4)cn3C)cn2CCC[N+](C)(C)C)sn1 [Ib-74] | >32 µg/mL | >32 µg/mL | >32 µg/mL | >32 µg/mL | >32 µg/mL | >32 µg/mL | – | – | – | – | – | –
14 | Cn1cc(NC(=O)c2cc(NC(=O)c3cc(NC(=O)c4cc5ccccc5cn4)c[nH]3)cn2C)cc1C(=O)NCCN1CCSCC1 [Ib-75] | – | – | – | – | – | – | < 4 | > 32 | < 4 | < 4 | < 4 | < 4
15 | Cn1cc(NC(=O)c2cc(NC(=O)c3cc(NC(=O)c4cc5ccccc5cn4)c[nH]3)cn2C)cc1C(=O)NCCc1ccncc1 [Ib-76] | +++ (+++ = MIC ≦ 4) | >32 µg/mL | +++ (+++ = MIC ≦ 4) | +++ (+++ = MIC ≦ 4) | +++ (+++ = MIC ≦ 4) | +++ (+++ = MIC ≦ 4) | – | – | – | – | – | –
16 | Cc1cc(NC(=O)c2cc(NC(=O)c3nc(NC(=O)c4cc5ccccc5cn4)cn3C)cn2CCN2CCOCC2)sn1 [Ib-77] | +++ (+++ = MIC ≦ 4) | >32 µg/mL | +++ (+++ = MIC ≦ 4) | +++ (+++ = MIC ≦ 4) | +++ (+++ = MIC ≦ 4) | +++ (+++ = MIC ≦ 4) | – | – | – | – | – | –
17 | CN(C)CCSCCn1cc(NC(=O)c2cc3ccccc3cn2)cc1C(=O)Nc1cc(C(=O)Nc2cc(C(=O)NCCN3CCOCC3)n(C)c2)n(C)c1 [Ib-79] | +++ (+++ = MIC ≦ 4) | >32 µg/mL | +++ (+++ = MIC ≦ 4) | +++ (+++ = MIC ≦ 4) | +++ (+++ = MIC ≦ 4) | +++ (+++ = MIC ≦ 4) | – | – | – | – | – | –
18 | CN(C)CCSCCn1cc(NC(=O)c2cc3ccccc3cn2)cc1C(=O)Nc1cc(C(=O)Nc2cc(C(=O)NCCN3CCSCC3)n(C)c2)n(C)c1 [Ib-80] | +++ (+++ = MIC ≦ 4) | +++ (+++ = MIC ≦ 4) | +++ (+++ = MIC ≦ 4) | +++ (+++ = MIC ≦ 4) | +++ (+++ = MIC ≦ 4) | +++ (+++ = MIC ≦ 4) | – | – | – | – | – | –
19 | CN(C)CCCn1cc(NC(=O)c2cc(NC(=O)c3cc4ccccc4cn3)cn2C)cc1C(=O)Nc1cc(C(=O)NCCN2CCOCC2)n(C)c1 [Ib-81] | +++ (+++ = MIC ≦ 4) | + (+ = 12 ≦ MIC ≦ 32) | +++ (+++ = MIC ≦ 4) | +++ (+++ = MIC ≦ 4) | +++ (+++ = MIC ≦ 4) | +++ (+++ = MIC ≦ 4) | – | – | – | – | – | –
20 | CN(C)CCCn1cc(NC(=O)c2cc(NC(=O)c3cc4ccccc4cn3)c[nH]2)cc1C(=O)Nc1cc(C(=O)NCCN2CCOCC2)n(C)c1 [Ib-82] | +++ (+++ = MIC ≦ 4) | + (+ = 12 ≦ MIC ≦ 32) | +++ (+++ = MIC ≦ 4) | +++ (+++ = MIC ≦ 4) | +++ (+++ = MIC ≦ 4) | +++ (+++ = MIC ≦ 4) | – | – | – | – | – | –
